According to US20100267561A1, “HERBICIDAL PYRIDAZINONE DERIVATIVES” (priority 2007, published 2010):

Tests used:
Experiment in all cases: Test B pre-/postemergence plant response
Type in all cases: in vivo
[1] = test system: catchweed bedstraw (Galium aparine); conditions: Preemergence
Method in brief: (§1)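 Seeds were sown and sprayed preemergence, while plants at 2 to 18 cm (1- to 4-leaf stage) got postemergence sprays. Compounds were formulated in a non-phytotoxic solvent mixture with surfactant. After 13 to 15 days in a greenhouse, injury was rated visually against untreated controls, 0 (no effect) to 100 (complete control).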

[2] = test system: Russian thistle (Salsola iberica); conditions: Preemergence
Method in brief: as §1

[3] = test system: surinam grass (Brachiaria decumbens); conditions: for Surinam Grass plant response rating: 8 g ai/ha
Method in brief: as §1

[4] = test system: yellow nutsedge (Cyperus esculentus); conditions: for Nutsedge, Yellow plant response rating: 8 g ai/ha
Method in brief: as §1

[5] = test system: morningglory (Ipomoea coccinea); conditions: for Morningglory plant response rating: 8 g ai/ha
Method in brief: as §1

kochia (Kochia scoparia) = conditions: for Kochia plant response rating: 8 g ai/ha
Method in brief: as §1

[6] = test system: green foxtail (Setaria viridis); conditions: for Foxtail, Green plant response rating: 8 g ai/ha
Method in brief: as §1

[7] = test system: cocklebur (Xanthium strumarium); conditions: for Cocklebur plant response rating: 8 g ai/ha
Method in brief: as §1

wild oat (Avena fatua) = conditions: for Oat, Wild plant response rating: 8 g ai/ha
Method in brief: as §1

[8] = test system: eastern black (E.B.) nightshade (Solanum ptycanthum); conditions: Preemergence
Method in brief: as §1

corn (Zea mays) = conditions: for Corn plant response rating: 8 g ai/ha
Method in brief: as §1

[9] = test system: common ragweed (Ambrosia elation); conditions: for Ragweed plant response rating: 8 g ai/ha
Method in brief: as §1

[10] = test system: lambsquarters (Chenopodium album); conditions: for Lambsquarters plant response rating: 8 g ai/ha
Method in brief: as §1

[11] = test system: Italian ryegrass (Lolium multiflorum); conditions: for Ryegrass, Italian plant response rating: 8 g ai/ha
Method in brief: as §1

[12] = 16 g ai/ha, scale 0 to 100 (0 no effect, 100 complete control)
[13] = 31 g ai/ha, 0 to 100 scale, 0 no effect, 100 complete control
[14] = Postemergence, 16 g ai/ha, scale 0 to 100
[15] = Postemergence, 62 g ai/ha, scale 0 to 100, 0 no effect, 100 complete control
[16] = Preemergence, 16 g ai/ha, scale 0 to 100 (0 no effect, 100 complete control)
[17] = Preemergence, 31 g ai/ha, 0 to 100 scale, 0 no effect, 100 complete control
[18] = Preemergence, 62 g ai/ha, scale 0 to 100
[19] = Postemergence, 31 g ai/ha, scale 0 to 100, 0 no effect, 100 complete control

Cc1cc(-c2ccc(Cl)cc2)nn1-c1c(OC(=O)C(C)C)cnn(C)c1=O [Compound 34]
0: Plant response rating, Galium [1, 12] | Plant response rating, Galium [1, 13] | Plant response rating, Galium ([1]; 62 g ai/ha, scale 0 to 100) | Galium plant response rating ([1]; 8 g ai/ha, scale 0 to 100) | Plant response rating, Russian Thistle [2, 12] | Plant response rating, Russian Thistle [2, 13] | Plant response rating, Russian Thistle ([2]; 62 g ai/ha, scale 0 to 100) | Russian Thistle plant response rating ([2]; 8 g ai/ha, scale 0 to 100) | Nutsedge, Yellow plant response rating ([4]; postemergence, 0-100 scale) | Plant response rating, Nutsedge, Yellow [4, 14] | Plant response rating, Nutsedge, Yellow [4, 19] | Plant response rating, Nutsedge, Yellow [4, 15] | Plant response rating, Nutsedge, Yellow [4, 16] | Plant response rating, Nutsedge, Yellow [4, 17] | Plant response rating, Nutsedge, Yellow [4, 18] | Nutsedge, Yellow plant response rating ([4]; Preemergence, scale 0 to 100) | Morningglory plant response rating ([5]; postemergence, 0-100 scale) | Plant response rating, Morningglory [5, 14] | Plant response rating, Morningglory [5, 19] | Plant response rating, Morningglory [5, 15] | Plant response rating, Morningglory [5, 16] | Plant response rating, Morningglory [5, 17] | Plant response rating, Morningglory [5, 18] | Morningglory plant response rating ([5]; Preemergence, scale 0 to 100) | Kochia plant response rating (kochia (Kochia scoparia); postemergence, 0-100 scale) | Plant response rating, Kochia (kochia (Kochia scoparia); [14]) | Plant response rating, Kochia (kochia (Kochia scoparia); [19]) | Plant response rating, Kochia (kochia (Kochia scoparia); [15]) | Plant response rating, Kochia (kochia (Kochia scoparia); [16]) | Plant response rating, Kochia (kochia (Kochia scoparia); [17]) | Plant response rating, Kochia (kochia (Kochia scoparia); [18]) | Kochia plant response rating (kochia (Kochia scoparia); Preemergence, scale 0 to 100) | Cocklebur plant response rating ([7]; postemergence, 0-100 scale) | Plant response rating, Cocklebur [7, 14] | Plant response rating, Cocklebur [7, 19] | Plant response rating, Cocklebur [7, 15] | Plant response rating, Cocklebur [7, 16] | Plant response rating, Cocklebur [7, 17] | Plant response rating, Cocklebur [7, 18] | Cocklebur plant response rating ([7]; Preemergence, scale 0 to 100) | Plant response rating, Nightshade, E. B. [8, 12] | Plant response rating, Nightshade, E. B. [8, 13] | Plant response rating, Nightshade, E. B. ([8]; 62 g ai/ha, scale 0 to 100) | Nightshade, E. B. plant response rating ([8]; 8 g ai/ha, scale 0 to 100) | Corn plant response rating (corn (Zea mays); postemergence, 0-100 scale) | Corn plant response rating (corn (Zea mays); Preemergence, scale 0 to 100) | Ragweed plant response rating ([9]; postemergence, 0-100 scale) | Plant response rating, Ragweed [9, 14] | Plant response rating, Ragweed [9, 19] | Plant response rating, Ragweed [9, 15] | Plant response rating, Ragweed [9, 16] | Plant response rating, Ragweed [9, 17] | Plant response rating, Ragweed [9, 18] | Ragweed plant response rating ([9]; Preemergence, scale 0 to 100) | Lambsquarters plant response rating ([10]; postemergence, 0-100 scale) | Plant response rating, Lambsquarters [10, 14] | Plant response rating, Lambsquarters [10, 19] | Plant response rating, Lambsquarters [10, 15] | Plant response rating, Lambsquarters [10, 16] | Plant response rating, Lambsquarters [10, 17] | Plant response rating, Lambsquarters [10, 18] | Lambsquarters plant response rating ([10]; Preemergence, scale 0 to 100)
80: Plant response rating, Surinam Grass [3, 14]
70: Surinam Grass plant response rating ([3]; postemergence, 0-100 scale) | Oat, Wild plant response rating (wild oat (Avena fatua); postemergence, 0-100 scale) | Ryegrass, Italian plant response rating ([11]; postemergence, 0-100 scale)
85: Plant response rating, Oat, Wild (wild oat (Avena fatua); [17]) | Plant response rating, Corn (corn (Zea mays); [17]) | Plant response rating, Ryegrass, Italian [11, 14]
98: Plant response rating, Corn (corn (Zea mays); [14]) | Plant response rating, Corn (corn (Zea mays); [19]) | Plant response rating, Corn (corn (Zea mays); [15])
65: Plant response rating, Corn (corn (Zea mays); [16])
60: Foxtail, Green plant response rating ([6]; postemergence, 0-100 scale)
90: Plant response rating, Foxtail, Green [6, 14] | Plant response rating, Oat, Wild (wild oat (Avena fatua); [14]) | Plant response rating, Oat, Wild (wild oat (Avena fatua); [18])
40: Oat, Wild plant response rating (wild oat (Avena fatua); Preemergence, scale 0 to 100)
100: Plant response rating, Surinam Grass [3, 15] | Plant response rating, Surinam Grass [3, 16] | Plant response rating, Surinam Grass [3, 17] | Plant response rating, Surinam Grass [3, 18] | Plant response rating, Foxtail, Green [6, 19] | Plant response rating, Foxtail, Green [6, 15] | Plant response rating, Foxtail, Green [6, 16] | Plant response rating, Foxtail, Green [6, 17] | Plant response rating, Foxtail, Green [6, 18] | Foxtail, Green plant response rating ([6]; Preemergence, scale 0 to 100) | Plant response rating, Oat, Wild (wild oat (Avena fatua); [15]) | Plant response rating, Ryegrass, Italian [11, 15] | Plant response rating, Ryegrass, Italian [11, 16] | Plant response rating, Ryegrass, Italian [11, 17] | Plant response rating, Ryegrass, Italian [11, 18] | Ryegrass, Italian plant response rating ([11]; Preemergence, scale 0 to 100)
95: Surinam Grass plant response rating ([3]; Preemergence, scale 0 to 100) | Plant response rating, Oat, Wild (wild oat (Avena fatua); [19]) | Plant response rating, Corn (corn (Zea mays); [18]) | Plant response rating, Ryegrass, Italian [11, 19]
